Counter-ions that a name gives are not always drawn.
Columns and labels:
trypsin = biological target: T1, trypsin (Bos taurus, UniProt P00760); assay: Inhibitory activity on trypsin; format: biochemical; conditions: trypsin derived from bovine pancreas; BAPNA substrate; pH 8.0; 30° C.; absorbance at 405 nm
T1 construct: from tissue; host or cells: bovine pancreas
T1 sequence (P00760 24-246): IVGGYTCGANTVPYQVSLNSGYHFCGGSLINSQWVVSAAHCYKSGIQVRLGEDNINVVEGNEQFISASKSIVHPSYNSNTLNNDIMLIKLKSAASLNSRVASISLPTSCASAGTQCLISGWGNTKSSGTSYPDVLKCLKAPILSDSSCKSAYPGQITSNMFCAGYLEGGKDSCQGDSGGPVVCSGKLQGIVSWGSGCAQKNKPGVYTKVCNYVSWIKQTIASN
Method: (2) Inhibitory activity on trypsin
To a mixture of a 0.2 M HEPES·sodium hydroxide buffer solution (pH 8.0, 100 μl) and distilled water (640 μl), were added solutions of a test compound in respective concentrations or water (10 μl), and a solution of 80 mU/ml trypsin (derived from bovine pancreas) (50 μl) and then the mixture was preincubated for one minute at 30° C. To the solution thus obtained was added 2.5 mM BAPNA (200 μl) and the mixture was incubated at 30° C. The absorbance at 405 nm was measured. Percentage (%) of the absorbance in the presence of a test compound was calculated when the absorbance in the absence thereof was regarded as 100%, and therefrom IC50 value was calculated.
(§1) In the methods hereinbefore described, 10PY-PC represents 3'-palmitoyl-2-(1-opyrenedecanoyl)-L-α-phosphatidylcholine, HEPES represents 4-(2-hydroxyethyl)-1-piperazineethanesulfonic acid, and BAPNA represents α-N-benzoyl-DL-arginine-p-nitroanilide hydrochloride.

PLA2 [1] = conditions: Japanese Journal of Clinical Medicine, 48 (1), 165-172, 1990; cited from earlier work
PLA2 [2] = biological target: T2, PLA2 (Sus scrofa, UniProt P00592); assay: Inhibitory activity on PLA2; format: biochemical, hog
T2 construct: from tissue; host or cells: hog pancreas
Method: A reaction solution including 50 mM tris-HCl buffer (pH7.5, 874 μl; containing 100 mM sodium chloride, 1 mM EDTA), 1M calcium chloride (6 μl), 1% bovine serum albumin (10 μl) and 2.5 mM 10PY-PC (10 μl), was prepared. To the solution were added solutions of a test compound in respective concentrations or water (50 μl), and a solution of 10 mU/ml PLA2 (derived from hog pancreas) (50 μl). The appearance of fluorescence was measured (Ex=345 nm, Em=396 nm). Percentage of the strength of fluorescence in the presence of a test compound was calculated when the strength of that in the absence thereof was regarded as 100%, and therefrom IC50 value was calculated.
as §1

T2 sequence (P00592 23-146): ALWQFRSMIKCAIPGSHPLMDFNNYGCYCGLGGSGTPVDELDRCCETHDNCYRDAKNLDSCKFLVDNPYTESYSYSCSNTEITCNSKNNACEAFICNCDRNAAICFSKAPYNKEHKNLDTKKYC

Row | Structure (SMILES) | IC50 (trypsin) [nM] | inhibitory activity on PLA2 (in words) (PLA2 [1]) | IC50 (PLA2 [2]) [µM]
1 | COCCCN(CC(=O)O)C(=O)/C(C)=C/c1ccc(C(=O)Oc2ccc(C(=N)N)cc2)cc1 [Example 3, p-(p-Amidinophenoxycarbonyl)-α-methylcinnamic acid N-carboxylmethyl-N-3-methoxypropylamide methanesulfonate] | 140 |  | 
2 | CN(C)C(=O)COC(=O)Cc1ccc(OC(=O)c2ccc(NC(=N)N)cc2)cc1 [camostat mesylate] |  | inhibitory activity on PLA2 | 
3 | CCOC(=O)CCN(CCCOC)C(=O)/C(C)=C/c1ccc(C(=O)Oc2ccc(C(=N)N)cc2)cc1 [Example 1, p-(p-Amidinophenoxycarbonyl)-α-methylcinnamic acid N-2-ethoxycarbonylethyl-N-3-methoxypropylamide hydrochloride] | 136 |  | 107
4 | CCOC(=O)C(C(=O)OCC)N(CCCOC)C(=O)/C(C)=C/c1ccc(C(=O)Oc2ccc(C(=N)N)cc2)cc1 [1(b), p-(p-Amidinophenoxycarbonyl)-α-methylcinnamic acid N-1,1-bis(ethoxycarbonyl)methyl-N-3-methoxypropylamide acetate] | 170 |  | 124
5 | N=C(N)Nc1ccc(C(=O)Oc2ccc3cc(C(=N)N)ccc3c2)cc1 [nafamostat mesylate] |  | inhibitory activity on PLA2 | 
6 | CCOC(=O)CN(CCCOC)C(=O)/C(C)=C/c1ccc(C(=O)Oc2ccc(C(=N)N)cc2)cc1 [Example 1(a), acetate] | 253 |  | 106
